Test results published in patent US12006350B2, “Triblock peptide amphiphiles, micelles and methods of use” (The Curators of the University of Missouri, priority 2017, dated 2024).
No end group written: not given here. *: point of attachment. Palmitoyl = CCCCCCCCCCCCCCCC(=O)*

Experiments:
dendritic cells (DCs) [1] = experiment: CCL22 production from DCs treated with VIP formulations; type: cell-based; details: 24 hours; for CCL22 production from immature DCs: vs no stimulus; for DC CCL22 production: immature and mature DCs
Experimental: Thus, CCL22 production from DCs treated with different VIP formulations was evaluated.

[2] = Micelle morphology and diameter by negative stain TEM; type: physicochemical; details: concentrations above CMC
Experimental: Micelle morphology was assessed by negative stain transmission electron microscopy (TEM). TEM grids (200 mesh) with standard thickness carbon support films were purchased from Electron Microscopy Sciences and glow discharged for 45 seconds (Pelco Easiglow) to impart a negative charge. Product solutions (5 μL) were added to freshly glow-discharged films and incubated for 5 minutes. Filter paper was used to wick away excess solution and 5 μL of nanotungsten (Nanoprobes, Inc.) was immediately added. After 5 minute of incubation, grids were blotted dried and stored for later use. Samples were imaged with a JEOL JEM-1400 TEM at 120 kV for shape assessment. Tilt series images were collected at 200 kV, spot size 4, gun lens of 5, and extraction voltage of 3950 sA at a nominal 23,000× magnification with an underfocus of 1 sm. Tilt increments were collected every 2 degrees with a tilt range of ±70°, starting at 0°, with the negative half of the tilt series collected using FEI Xplore3D. Frames were aligned using IMOD with the patch-tracking algorithm using the entire imaged area for frame alignment and reconstructed with the weighted back projection algorithm. Micellar diameters were measured using ImageJ software (NIH). Three different spots from each micelle were measured and the results from three separate micelles were averaged for each group.

dendritic cells (DCs) [3] = experiment: TNF-α secretion from LPS-activated DCs incubated with VIP materials; type: cell-based; details: low (1 μM) or high (20 μM) concentration
Experimental: (§1) The anti-inflammatory effect of VIPAMs were explored by incubating MOs and DCs with LPS and different VIP materials at low (i.e. 1 μM) or high (20 μM) concentrations (FIG. 41A, FIG. 41B, and FIG. 41C).

macrophages (MØs) = experiment: TNF-α secretion from LPS-activated MØs incubated with VIP materials; type: cell-based
Experimental: as §1

[4] = Micelle/peptide secondary structure by circular dichroism; type: physicochemical; details: CD analysis; compared with VIP and pVIPA
Experimental: Micelle secondary structure was investigated by circular dichroism using a circular dichroism spectrometer model 62DS (Aviv Biomedical, Inc., Lakewood, NJ). Micelle solutions (40 μM) were loaded into a 1 mm cuvette and measured a total of 10 times from 190 to 250 nm with an interval of 1 nm. The averaged data was curve fit using a linear combination of polylysine basis structures to calculate approximate α-helix, β-sheet, and random coil content.

[5] = Critical micelle concentration (CMC) by DPH fluorescence; type: physicochemical; details: VIP amphiphiles
Experimental: Critical micelle concentration (CMC) was measured indirectly by 1,6-diphenyl-1,3,5-hexatriene (DPH) fluorescence. […] Peptide amphiphile solutions were serially diluted in 1 μM 1,6-diphenyl-1,3,5 hexatriene (DPH) containing 0.01% THF and allowed to equilibrate for 1 hour prior to fluorescence measurement (ex. 350 nm, em. 428 nm) by a BioTek Cytation 5 fluorospectrophotometer. The resulting data was fit with two trend lines and the fluorescence inflection point was interpreted as the CMC (Table 4 and FIG. 23, FIG. 24, FIG. 25, FIG. 26, FIG. 27, FIG. 28, FIG. 29, and FIG. 30).
VIPA design and physical characterization: Based on our recent research, two VIPA chemistries were produced. The first VIPA was synthesized by directly conjugating palmitic acid (Palm) to the N-terminus of VIP to form Palm-VIP, […] (SEQ ID NO: 3), (pVIPA—FIG. 39A). The second VIPA included a zwitterion-like peptide region between Palm and VIP yielding PalmK-(EK)4-VIP, […] (SEQ ID NO: 4) (pzVIPA—FIG. 39B). […] While the addition of the hydrophilic block may have been expected to maintain or decrease the CMC, peptide folding to orient the most hydrophilic section externally can induce bending in the PA that may prevent straightforward micellar packing. […] This increased length is likely due to the intermicellar electrostatic complexation we have previously described for similar triblock PAs. […]

dendritic cells (DCs) [6] = experiment: CD86 expression on DCs incubated with VIP materials; type: cell-based; details: for CD86 expression on activated DCs: with LPS
Experimental: as §1

dendritic cells (DCs) [7] = details: after 48 hours of incubation; previous results; cited from earlier work
[8] = cited from earlier work
[9] = Zeta potential measurement of the zwitterion-like peptide region alone; type: physicochemical
Source text: The alternating charge groups of (KE)4 at neutral pH can create local dipole moments that allow for intermicellar complexation yielding the observed twining behavior. At low pH and high pH utilized, not all of the glutamic acids or lysines will be protonated or deprotonated, respectively, but the local change in (KE)4 block charge is significant enough to repulse one another yielding individual thread-like micelles.

[10] = low (1 μM) or high (20 μM) concentration

PalmK-(EK)4-VIP (K(Palmitoyl)EKEKEKEKHSDAVFTDNYTRLRKQMAVKKYLNSILN-NH2; not fully specified) [pzVIPA]
CCL22 production from immature DCs (dendritic cells (DCs) [1]; high concentration): induced greater CCL22 production
micelle shape [2]: braided micelles
TNF-α secretion from activated DCs (dendritic cells (DCs) [3]): maintained VIP-based TNF-α secretion
TNF-α secretion from activated MØs (macrophages (MØs); effect only at high concentration (20 μM)): nearly completely abrogated
α-helical conformation [4]: more abundant
CMC [5]: 9.3 µM
CD86 cell surface expression on immature DCs (dendritic cells (DCs) [6]; no LPS): no increase
CD86 expression on activated DCs (dendritic cells (DCs) [6]; high concentration (20 μM)): significantly limited

Vasoactive intestinal peptide (HSDAVFTDNYTRLRKQMAVKKYLNSILN) [VIP, reference compound]
DC CCL22 production (dendritic cells (DCs) [1]): unable to induce
CCL22 production (dendritic cells (DCs) [7]): induces significant CCL22 production
TNF-α secretion from activated DCs (dendritic cells (DCs) [3]): modestly reduce
TNF-α secretion from activated MØs (macrophages (MØs); [10]): modestly reduce
CD86 expression on activated DCs (dendritic cells (DCs) [6]; [10]): modestly reduce

N[C@@H](CCC(=O)O)C(=O)O [glutamic acid]
pKa [8]: 4.07

-Lys-Glu-Lys-Glu-Lys-Glu-Lys-Glu- (KEKEKEKE) [(KE)4]
Zeta Potential ([9]; pH 2): 31.4 ± 2.9 mV
Zeta Potential ([9]; pH 7): −7.8 ± 1.2 mV
Zeta Potential ([9]; pH 11): −18.1 ± 4.7 mV

Palm-VIP [pVIPA]
CCL22 production from mature DCs (dendritic cells (DCs) [1]; high concentration, vs LPS-stimulated mature DC control): enhanced CCL22 production
CCL22 production from immature DCs (dendritic cells (DCs) [1]; high concentration): induced greater CCL22 production
micelle shape [2]: cylindrical micelles
TNF-α secretion from activated DCs (dendritic cells (DCs) [3]): completely nullified VIP effects
TNF-α secretion from activated MØs (macrophages (MØs); [10]): unable to enhance the TNF-α suppressive effects of VIP
CD86 expression in immature DCs (dendritic cells (DCs) [6]; high concentration, no LPS): significantly increased
CD86 expression on activated DCs (dendritic cells (DCs) [6]; high concentration (20 μM)): enhanced

CCCCCCCCCCCCCCCC(=O)O [Palm, palmitic acid, reference compound]
DC CCL22 production (dendritic cells (DCs) [1]): no impact on CCL22 induction
TNF-α secretion from activated DCs (dendritic cells (DCs) [3]): no TNF-α nor CD86 regulation
TNF-α secretion from activated MØs (macrophages (MØs); [10]): no TNF-α nor CD86 regulation
CD86 expression on activated DCs (dendritic cells (DCs) [6]; [10]): no TNF-α nor CD86 regulation
